From patent US7071177B2, “P-(sulfonyl) aryl and heteroarylamines as anti-inflammatory agents” (Syntex (U.S.A.) LLC, priority 2000, dated 2006) come the findings set out here.

SMILES strings stand for the structures.

On to `CS(=O)(=O)CCN(Cc1ccccn1)c1ccc(S(C)(=O)=O)cc1` [1-45, 4-{N,N-[2-(methylsulfonyl)ethyl](pyridin-2-ylmethyl)amino}phenyl methyl sulfone], for which the melting point is 139.5 to 140.5 °C.
For `CCOc1ccc(CN(CCS(C)(=O)=O)c2ccc(S(C)(=O)=O)c(F)c2)cc1` [1-72, (4-ethoxy-benzyl)-(3-fluoro-4-methanesulfonyl-phenyl)-(2-methanesulfonyl-ethyl)-amine] the value was 56 to 59 °C; for `COc1ccc(CNS(=O)(=O)c2ccc(N(CCS(C)(=O)=O)Cc3ccc(C)cc3)cc2)cc1` [2-1, 4-[(2-methylsulfonyl-ethyl)-(4-methyl-benzyl)amino]-N-(4-methoxy-benzyl)-benzenesulfonamide], 85.7 to 86.6 °C; for `Cc1ccc(CN(CCS(C)(=O)=O)c2ccc(S(N)(=O)=O)cc2)cc1` [2-2, 4-[(2-methylsulfonyl-ethyl)-(4-methyl-benzyl)-amino]-benzenesulfonamide], 169.1 to 170 °C.
For the molecule `CS(=O)(=O)CCN(Cc1ccc(F)cc1F)c1ccc(S(N)(=O)=O)cc1` [2-4, 4-[(2-methylsulfonyl-ethyl)-(2,4-difluorobenzyl)-amino]-benzenesulfonamide], the melting point lay in the range of 152.9 to 153.2 °C.

For orientation: melting point means the temperature, or range, at which the solid turns liquid.
